Reference: patent US12077503B2, “Substituted cyclic amides and their use as herbicides” (FMC CORPORATION, priority 2015, dated 2024)

How the values were obtained:
Type in all cases: in vivo
[1] = system: giant foxtail (Setaria faberi); test: Test G Post-Emergence Protocol; conditions: Setaria faberi, post-emergence, 312 h; for pest or weed control at 15.625 g/ha: 15.625 g ai/ha, evaluated after 13 days (100=total damage to plant; 0=no damage to plant), read-out: Foxtail, Giant damage rating; for pest or weed control at 62.5 g/ha: 62.5 g ai/ha, read-out: Foxtail, Giant damage rating (100=total damage to plant; 0=no damage to plant); for pest or weed control at 62.5 g/ha / pest or weed control at 250 g/ha: evaluated after 13 days; for pest or weed control at 250 g/ha: 250 g ai/ha, read-out: damage to plant, Foxtail, Giant (100=total damage to plant; 0=no damage to plant)
Procedure, shortened: (§1)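 Seedlings grown 8 days in soil in a glasshouse (24/16 °C day/night, 14 h light, 65% humidity) were sprayed post-emergence with compound in acetone/water 50:50 plus 0.5% Tween 20 at 15.625, 62.5 or 250 g/ha. Damage was scored after 13 days on a 0–100 scale (100 = total damage).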

[2] = system: barnyardgrass (Echinochloa crus-galli); test: Test G Post-Emergence Protocol; conditions: Echinochloa crus-galli, post-emergence, 312 h; for pest or weed control at 15.625 g/ha: 15.625 g ai/ha, evaluated after 13 days (100=total damage to plant; 0=no damage to plant), read-out: Barnyardgrass damage rating; for pest or weed control at 62.5 g/ha: 62.5 g ai/ha, read-out: Barnyardgrass damage rating (100=total damage to plant; 0=no damage to plant); for pest or weed control at 62.5 g/ha / pest or weed control at 250 g/ha: evaluated after 13 days; for pest or weed control at 250 g/ha: 250 g ai/ha, read-out: damage to plant, Barnyardgrass (100=total damage to plant; 0=no damage to plant)
Procedure, shortened: as §1

[3] = system: velvetleaf (Abutilon theophrasti); test: Test G Post-Emergence Protocol; conditions: Abutilon theophrasti, post-emergence, 312 h; for pest or weed control at 15.625 g/ha: 15.625 g ai/ha, evaluated after 13 days (100=total damage to plant; 0=no damage to plant), read-out: Velvetleaf damage rating; for pest or weed control at 62.5 g/ha: 62.5 g ai/ha, read-out: Velvetleaf damage rating (100=total damage to plant; 0=no damage to plant); for pest or weed control at 62.5 g/ha / pest or weed control at 250 g/ha: evaluated after 13 days; for pest or weed control at 250 g/ha: 250 g ai/ha, read-out: damage to plant, Velvetleaf (100=total damage to plant; 0=no damage to plant)
Procedure, shortened: as §1

[4] = system: ivy-leaved morning glory (Ipomoea hederacea); test: Test G Post-Emergence Protocol; conditions: Ipomoea, post-emergence, 312 h; for pest or weed control at 15.625 g/ha: 15.625 g ai/ha, evaluated after 13 days (100=total damage to plant; 0=no damage to plant), read-out: Morningglory, Ivy-leaved damage rating; for pest or weed control at 62.5 g/ha: 62.5 g ai/ha, read-out: Morningglory, Ivy-leaved damage rating (100=total damage to plant; 0=no damage to plant); for pest or weed control at 62.5 g/ha / pest or weed control at 250 g/ha: evaluated after 13 days; for pest or weed control at 250 g/ha: 250 g ai/ha, read-out: damage to plant, Morningglory, Ivy-leaved (100=total damage to plant; 0=no damage to plant)
Procedure, shortened: as §1

[5] = system: redroot pigweed (Amaranthus retroflexus); test: Test G Post-Emergence Protocol; conditions: Amaranthus retroflexus, post-emergence, 312 h; for pest or weed control at 15.625 g/ha: 15.625 g ai/ha, evaluated after 13 days (100=total damage to plant; 0=no damage to plant), read-out: Pigweed, Redroot damage rating; for pest or weed control at 62.5 g/ha: 62.5 g ai/ha, read-out: Pigweed, Redroot damage rating (100=total damage to plant; 0=no damage to plant); for pest or weed control at 62.5 g/ha / pest or weed control at 250 g/ha: evaluated after 13 days; for pest or weed control at 250 g/ha: 250 g ai/ha, read-out: damage to plant, Pigweed, Redroot (100=total damage to plant; 0=no damage to plant)
Procedure, shortened: as §1

[6] = system: corn (Zea mays); test: Test G Post-Emergence Protocol; conditions: Zea mays, post-emergence, 312 h; for plant injury at 15.625 g/ha: 15.625 g ai/ha, evaluated after 13 days (100=total damage to plant; 0=no damage to plant), read-out: Corn damage rating; for plant injury at 62.5 g/ha: 62.5 g ai/ha, read-out: Corn damage rating (100=total damage to plant; 0=no damage to plant); for plant injury at 62.5 g/ha / plant injury at 250 g/ha: evaluated after 13 days; for plant injury at 250 g/ha: 250 g ai/ha, read-out: damage to plant, Corn (100=total damage to plant; 0=no damage to plant)
Procedure, shortened: as §1

[7] = system: giant foxtail (Setaria faberi); test: Test G Pre-Emergence Protocol; conditions: Setaria faberi, pre-emergence, 312 h, evaluated after 13 days; for pest or weed control at 15.625 g/ha: 15.625 g ai/ha; for pest or weed control at 15.625 g/ha / pest or weed control at 250 g/ha: read-out: Foxtail, Giant damage rating (100=total damage to plant; 0=no damage to plant); for pest or weed control at 62.5 g/ha: 62.5 g ai/ha, 100=total damage to plant, 0=no damage to plant, read-out: plant damage rating, Foxtail, Giant; for pest or weed control at 250 g/ha: 250 g ai/ha
Procedure, shortened: (§2)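 Pots of seeds in standard soil were grown for one day in a glasshouse (24/16 °C day/night, 14 h light, 65% humidity), then sprayed with compound in acetone/water 50:50 with 0.5% Tween 20 at 15.625, 62.5 or 250 g/ha. Damage was scored after 13 days on a 0 (none) to 100 (total) scale.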

[8] = system: barnyardgrass (Echinochloa crus-galli); test: Test G Pre-Emergence Protocol; conditions: Echinochloa crus-galli, pre-emergence, 312 h, evaluated after 13 days; for pest or weed control at 15.625 g/ha: 15.625 g ai/ha, read-out: Barnyard grass damage rating (100=total damage to plant; 0=no damage to plant); for pest or weed control at 62.5 g/ha: 62.5 g ai/ha, 100=total damage to plant, 0=no damage to plant, read-out: plant damage rating, Barnyardgrass; for pest or weed control at 250 g/ha: 250 g ai/ha, read-out: Barnyardgrass damage rating (100=total damage to plant; 0=no damage to plant)
Procedure, shortened: as §2

[9] = system: velvetleaf (Abutilon theophrasti); test: Test G Pre-Emergence Protocol; conditions: Abutilon theophrasti, pre-emergence, 312 h, evaluated after 13 days; for pest or weed control at 15.625 g/ha: 15.625 g ai/ha; for pest or weed control at 15.625 g/ha / pest or weed control at 250 g/ha: read-out: Velvetleaf damage rating (100=total damage to plant; 0=no damage to plant); for pest or weed control at 62.5 g/ha: 62.5 g ai/ha, 100=total damage to plant, 0=no damage to plant, read-out: plant damage rating, Velvetleaf; for pest or weed control at 250 g/ha: 250 g ai/ha
Procedure, shortened: as §2

[10] = system: ivy-leaved morning glory (Ipomoea hederacea); test: Test G Pre-Emergence Protocol; conditions: Ipomoea, pre-emergence, 312 h, evaluated after 13 days; for pest or weed control at 15.625 g/ha: 15.625 g ai/ha, read-out: Morning-glory, Ivy-leaved damage rating (100=total damage to plant; 0=no damage to plant); for pest or weed control at 62.5 g/ha: 62.5 g ai/ha, 100=total damage to plant, 0=no damage to plant, read-out: plant damage rating, Morningglory, Ivy-leaved; for pest or weed control at 250 g/ha: 250 g ai/ha, read-out: Morningglory, Ivy-leaved damage rating (100=total damage to plant; 0=no damage to plant)
Procedure, shortened: as §2

[11] = system: redroot pigweed (Amaranthus retroflexus); test: Test G Pre-Emergence Protocol; conditions: Amaranthus retroflexus, pre-emergence, 312 h, evaluated after 13 days; for pest or weed control at 15.625 g/ha: 15.625 g ai/ha; for pest or weed control at 15.625 g/ha / pest or weed control at 250 g/ha: read-out: Pigweed, Redroot damage rating (100=total damage to plant; 0=no damage to plant); for pest or weed control at 62.5 g/ha: 62.5 g ai/ha, 100=total damage to plant, 0=no damage to plant, read-out: plant damage rating, Pigweed, Redroot; for pest or weed control at 250 g/ha: 250 g ai/ha
Procedure, shortened: as §2

[12] = system: corn (Zea mays); test: Test G Pre-Emergence Protocol; conditions: Zea mays, pre-emergence, 312 h, evaluated after 13 days; for plant injury at 15.625 g/ha: 15.625 g ai/ha; for plant injury at 15.625 g/ha / plant injury at 250 g/ha: read-out: Corn damage rating (100=total damage to plant; 0=no damage to plant); for plant injury at 62.5 g/ha: 62.5 g ai/ha, 100=total damage to plant, 0=no damage to plant, read-out: plant damage rating, Corn; for plant injury at 250 g/ha: 250 g ai/ha
Procedure, shortened: as §2

| SMILES | pest or weed control at 15.625 g/ha [1] [%] | pest or weed control at 62.5 g/ha [1] [%] | pest or weed control at 250 g/ha [1] [%] | pest or weed control at 15.625 g/ha [2] [%] | pest or weed control at 62.5 g/ha [2] [%] | pest or weed control at 250 g/ha [2] [%] | pest or weed control at 15.625 g/ha [3] [%] | pest or weed control at 62.5 g/ha [3] [%] | pest or weed control at 250 g/ha [3] [%] | pest or weed control at 15.625 g/ha [4] [%] | pest or weed control at 62.5 g/ha [4] [%] | pest or weed control at 250 g/ha [4] [%] | pest or weed control at 15.625 g/ha [5] [%] | pest or weed control at 62.5 g/ha [5] [%] | pest or weed control at 250 g/ha [5] [%] | plant injury at 15.625 g/ha [6] [%] | plant injury at 62.5 g/ha [6] [%] | plant injury at 250 g/ha [6] [%] | pest or weed control at 15.625 g/ha [7] [%] | pest or weed control at 62.5 g/ha [7] [%] | also measured |
| --- | --- | --- | --- | --- | --- | --- | --- | --- | --- | --- | --- | --- | --- | --- | --- | --- | --- | --- | --- | --- | --- |
| CN1C[C@@H](c2cnc(Cl)c(F)c2)[C@H](C(=O)Nc2cccc(F)c2F)C1=O (racemic) [Compound 1486] | 60 | 60 | 70 | 40 | 60 | 70 | 0 | 0 | 10 | 0 | 0 | 0 | 0 | 0 | 30 | 10 | 10 | 60 | 40 | 90 | pest or weed control at 250 g/ha [7]: 90%; pest or weed control at 15.625 g/ha [8]: 30%; pest or weed control at 62.5 g/ha [8]: 60%; pest or weed control at 250 g/ha [8]: 90%; pest or weed control at 15.625 g/ha [9]: 0%; pest or weed control at 62.5 g/ha [9]: 0%; pest or weed control at 250 g/ha [9]: 10%; pest or weed control at 15.625 g/ha [10]: 0%; pest or weed control at 62.5 g/ha [10]: 0%; pest or weed control at 250 g/ha [10]: 0%; pest or weed control at 15.625 g/ha [11]: 0%; pest or weed control at 62.5 g/ha [11]: 0%; pest or weed control at 250 g/ha [11]: 60%; plant injury at 15.625 g/ha [12]: 10%; plant injury at 62.5 g/ha [12]: 20%; plant injury at 250 g/ha [12]: 40% |
| CN1C[C@@H](c2ccc(C(F)(F)F)nc2)[C@H](C(=O)Nc2cccc(F)n2)C1=O (racemic) [Compound 1491] | 0 | 20 | 60 | 0 | 20 | 60 | 0 | 0 | 0 | 0 | 0 | 10 | 0 | 0 | 0 | 0 | 0 | 0 | 0 | 50 | pest or weed control at 250 g/ha [7]: 80%; pest or weed control at 15.625 g/ha [8]: 0%; pest or weed control at 62.5 g/ha [8]: 20%; pest or weed control at 250 g/ha [8]: 90%; pest or weed control at 15.625 g/ha [9]: 0%; pest or weed control at 62.5 g/ha [9]: 0%; pest or weed control at 250 g/ha [9]: 0%; pest or weed control at 15.625 g/ha [10]: 0%; pest or weed control at 62.5 g/ha [10]: 0%; pest or weed control at 250 g/ha [10]: 0%; pest or weed control at 15.625 g/ha [11]: 0%; pest or weed control at 62.5 g/ha [11]: 0%; pest or weed control at 250 g/ha [11]: 0%; plant injury at 15.625 g/ha [12]: 0%; plant injury at 62.5 g/ha [12]: 0%; plant injury at 250 g/ha [12]: 0% |
